Measurements reported in patent US8846739B2, “TGR5 agonists” (Exelixis Patent Company LLC, priority 2009, dated 2014).

What was measured:
[1] = target: T1, h-TGR5 (Homo sapiens, UniProt Q8TDU6); experiment: TGR5 cAMP Assay using Cisbio cAMP Dynamic 2 htrf assay kit; type: cell-based; conditions: hTGR5CRE-luc HEK 293 cells
T1 sequence (Q8TDU6 1-330): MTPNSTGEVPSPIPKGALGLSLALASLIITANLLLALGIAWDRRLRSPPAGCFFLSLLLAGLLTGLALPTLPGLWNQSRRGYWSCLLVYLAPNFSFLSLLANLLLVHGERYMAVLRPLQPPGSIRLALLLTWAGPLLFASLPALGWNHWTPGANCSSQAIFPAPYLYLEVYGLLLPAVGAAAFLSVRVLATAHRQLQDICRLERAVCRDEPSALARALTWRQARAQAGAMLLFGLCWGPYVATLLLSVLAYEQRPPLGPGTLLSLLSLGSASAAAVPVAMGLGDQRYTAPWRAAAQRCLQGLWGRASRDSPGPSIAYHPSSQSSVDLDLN

[2] = target: T2, human TGR5 (h-TGR5) (Homo sapiens, UniProt Q8TDU6); experiment: TGR5/CRE-Luciferase Assay; type: cell-based; conditions: HEK 293 hTGR5/CRE-Luc cells, 6 hours incubation, read-out: CRE-Luc Agonist (EC50)
T2 sequence (Q8TDU6 1-330): T1 sequence (Q8TDU6 1-330)
How it was run: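 HEK 293 CRE-Luciferase cells stably expressing the receptor, plated in DMEM 18-20 h before assay, then exposed to serially diluted compounds (DMEM with 5% DMSO) for 6 h. Luciferase read-out after lysis; EC50 from dose-response.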

Row | SMILES | EC50 [1] | EC50 [2]
1 | COc1cc(C(C)(C)c2cnc(SCc3c(F)cc(C(=O)NCC[N+]4(C)CCOCC4)cc3Cl)n2-c2ccc(F)cc2)ccc1Cl [Example 2j, 4-[2-({[3-chloro-4-({[5-{1-[4-chloro-3-(methyloxy)phenyl]-1-methylethyl}-1-(4-fluorophenyl)-1H-imidazol-2-yl]thio}methyl)-5-fluorophenyl]carbonyl}amino)ethyl]-4-methylmorpholin-4-ium] | 1000 to 10000 nM | 1000 to 10000 nM
2 | COc1cc(-n2c(C(C)(C)c3ccc4onc(N)c4c3)cnc2SCc2c(F)cc(C(=O)N[C@H]3CC[N+](C)(C)C3)cc2F)ccc1F [Example 2k, (3S)-3-[({4-[({5-[1-(3-amino-1,2-benzisoxazol-5-yl)-1-methylethyl]-1-[4-fluoro-3-(methyloxy)phenyl]-1H-imidazol-2-yl}thio)methyl]-3,5-difluorophenyl}carbonyl)amino]-1,1-dimethylpyrrolidinium] | < 100 nM | < 100 nM
3 | COc1cc(C(C)(C)c2cnc(SCc3c(F)cc(C(=O)N4CCC([N+](C)(C)C)CC4)cc3Cl)n2-c2ccc(F)cc2)ccc1Cl [Example 2l, 1-{[3-chloro-4-({[5-{1-[4-chloro-3-(methyloxy)phenyl]-1-methylethyl}-1-(4-fluorophenyl)-1H-imidazol-2-yl]thio}methyl)-5-fluorophenyl]carbonyl}-N,N,N-trimethylpiperidin-4-aminium] | < 100 nM | < 100 nM
4 | COc1cc(C(C)(C)c2cnc(SCc3c(F)cc(C(=O)NCC4(O)CC[N+](C)(C)CC4)cc3Cl)n2-c2ccc(F)cc2)ccc1Cl [Example 2m, 4-[({[3-chloro-4-({[5-{1-[4-chloro-3-(methyloxy)phenyl]-1-methylethyl}-1-(4-fluorophenyl)-1H-imidazol-2-yl]thio}methyl)-5-fluorophenyl]carbonyl}amino)methyl]-4-hydroxy-1,1-dimethylpiperidinium] | < 100 nM | < 100 nM

Further lines, results first:

Row | EC50 [1] | EC50 [2] | SMILES
5 | < 100 nM | < 100 nM | COc1cc(-n2c(C(C)(C)c3ccc(Cl)c(Cl)c3)cnc2SCc2c(F)cc(C(=O)NCC[N+](C)(C)C)cc2Cl)ccc1F [Example 2n, 2-[({3-chloro-4-[({5-[1-(3,4-dichlorophenyl)-1-methylethyl]-1-[4-fluoro-3-(methyloxy)phenyl]-1H-imidazol-2-yl}thio)methyl]-5-fluorophenyl}carbonyl)amino]-N,N,N-trimethylethanaminium]
6 | < 100 nM | < 100 nM | COc1cc(-n2c(C(C)(C)c3ccc(Cl)c(Cl)c3)cnc2SCc2c(F)cc(C(=O)N[C@H]3CCC[N+](C)(C)C3)cc2Cl)ccc1F [Example 2o, (3S)-3-[({3-chloro-4-[({5-[1-(3,4-dichlorophenyl)-1-methylethyl]-1-[4-fluoro-3-(methyloxy)phenyl]-1H-imidazol-2-yl}thio)methyl]-5-fluorophenyl}carbonyl)amino]-1,1-dimethylpiperidinium]
7 | < 100 nM | < 100 nM | COc1cc(C(C)(C)c2cnc(SCc3c(F)cc(C(=O)N[C@H]4CCC[N+](C)(C)C4)cc3Cl)n2-c2ccc(F)cc2)ccc1F [Example 2p, (3S)-3-({[3-chloro-5-fluoro-4-({[5-{1-[4-fluoro-3-(methyloxy)phenyl]-1-methylethyl}-1-(4-fluorophenyl)-1H-imidazol-2-yl]thio}methyl)phenyl]carbonyl}amino)-1,1-dimethylpiperidinium]
8 | < 100 nM | < 100 nM | COc1cc(C(C)(C)c2cnc(SCc3c(F)cc(C(=O)N[C@H]4CC[N+](C)(C)C4)cc3Cl)n2-c2ccc(F)cc2)ccc1F [Example 2q, (3S)-3-({[3-chloro-5-fluoro-4-({[5-{1-[4-fluoro-3-(methyloxy)phenyl]-1-methylethyl}-1-(4-fluorophenyl)-1H-imidazol-2-yl]thio}methyl)phenyl]carbonyl}amino)-1,1-dimethylpyrrolidinium]
